Here are results for 20 compounds from US20190134005A1 (BioMarin Pharmaceutical Inc., priority 2016, published 2019).

Molecules are shown by their SMILES. Where only a bound is given, the exact number is not on record here.

This assay concerns the target T1, human CGT (Homo sapiens, UniProt Q16880).
T1 sequence (Q16880 21-541): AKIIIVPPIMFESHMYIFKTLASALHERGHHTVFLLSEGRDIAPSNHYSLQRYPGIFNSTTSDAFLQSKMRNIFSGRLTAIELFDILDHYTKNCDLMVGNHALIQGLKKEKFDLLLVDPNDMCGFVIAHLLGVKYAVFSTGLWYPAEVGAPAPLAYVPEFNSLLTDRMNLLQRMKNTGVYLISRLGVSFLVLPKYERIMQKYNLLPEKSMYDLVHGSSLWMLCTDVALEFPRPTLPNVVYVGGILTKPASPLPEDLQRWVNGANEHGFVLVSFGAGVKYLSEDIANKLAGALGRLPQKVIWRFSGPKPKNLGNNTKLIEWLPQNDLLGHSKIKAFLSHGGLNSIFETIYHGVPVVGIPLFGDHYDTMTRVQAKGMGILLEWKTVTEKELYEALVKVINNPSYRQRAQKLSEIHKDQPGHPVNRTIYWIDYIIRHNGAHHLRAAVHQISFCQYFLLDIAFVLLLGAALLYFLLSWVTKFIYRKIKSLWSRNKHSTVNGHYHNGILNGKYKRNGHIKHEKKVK
Nature of the assay: CGT Enzyme Assay (Biological Example 2, RapidFire/MS/MS method with 0.01% Tween 80 added). It is filed as biochemical. The note with it: enzymatic assay, CHO/CGT lysate. In a few lines:
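Lysate of CHO cells transfected with full-length human CGT, 0.5% DMSO final, 0.01% Tween 80 added; reactions stopped with methanol:acetonitrile holding internal standard. C6-NBD-dihydro-galactosylceramide and C6-NBD-dihydro-ceramide measured by RapidFire/MS/MS (ESI negative), product peak area normalized to internal standard.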

In the case of `Cc1ccc(N2C(=O)N(c3ccc(C#N)cc3)[C@@H](c3cccc(C#N)c3)C2(C)C)cc1` [Example 48-2, (S)-3-(3-(4-cyanophenyl)-5,5-dimethyl-2-oxo-1-(p-tolyl)imidazolidin-4-yl)benzonitrile], the IC50 is less than 1 µM.

With `Cc1ccc(N2C(=O)N(c3ccc(Cl)cc3)[C@@H](c3cccc(OC(F)(F)F)c3)C23COC3)cc1` [Example 49-2], the IC50 was less than 1 µM.

`Cc1ccc(N2C(=O)N(c3ccc(C#N)cc3)[C@H](c3cccc(OC(F)(F)F)c3)C2(C)C)cc1` [Example 50-1, (R)-4-(4,4-dimethyl-2-oxo-3-(p-tolyl)-5-(3-(trifluoromethoxy)phenyl)imidazolidin-1-yl)benzonitrile]: the IC50 was less than 1 µM.

Compound `Cc1ccc(N2C(=O)N(c3ccc(C#N)cc3)[C@@H](c3cccc(OC(F)(F)F)c3)C2(C)C)cc1` [Example 50-2, (S)-4-(4,4-dimethyl-2-oxo-3-(p-tolyl)-5-(3-(trifluoromethoxy)phenyl)imidazolidin-1-yl)benzonitrile] came in with an IC50 of 10 to 30 µM.

Consider `CC[C@]1(C)[C@H](c2cccc(OC(F)(F)F)c2)N(c2ccc(C#N)cc2)C(=O)N1c1ccc(C#N)cc1` [Example 51-2, 4,4′-((4R,5S)-4-ethyl-4-methyl-2-oxo-5-(3-(trifluoromethoxy)phenyl)imidazolidine-1,3-diyl)dibenzonitrile], for which the IC50 is less than 1 µM.

The compound `CC[C@]1(C)[C@@H](c2cccc(OC(F)(F)F)c2)N(c2ccc(C#N)cc2)C(=O)N1c1ccc(C#N)cc1` [Example 51-3, 4,4′-((4R,5R)-4-ethyl-4-methyl-2-oxo-5-(3-(trifluoromethoxy)phenyl)imidazolidine-1,3-diyl)dibenzonitrile] registered an IC50 of 1 to 10 µM.

Compound `CC[C@@]1(C)[C@H](c2cccc(OC(F)(F)F)c2)N(c2ccc(C#N)cc2)C(=O)N1c1ccc(C#N)cc1` [Example 51-5, 4,4′-((4S,5S)-4-ethyl-4-methyl-2-oxo-5-(3-(trifluoromethoxy)phenyl)imidazolidine-1,3-diyl)dibenzonitrile] displayed an IC50 of 1 to 10 µM.

Consider `CC[C@@]1(C)[C@@H](c2cccc(OC(F)(F)F)c2)N(c2ccc(C#N)cc2)C(=O)N1c1ccc(C#N)cc1` [Example 51-6, 4,4′-((4S,5R)-4-ethyl-4-methyl-2-oxo-5-(3-(trifluoromethoxy)phenyl)imidazolidine-1,3-diyl)dibenzonitrile], for which the IC50 was 10 to 30 µM.

For the compound `CCC[C@]1(C)[C@H](c2cccc(OC(F)(F)F)c2)N(c2ccc(C#N)cc2)C(=O)N1c1ccc(C#N)cc1` [Example 52-2, 4,4′-((4R,5S)-4-methyl-2-oxo-4-propyl-5-(3-(trifluoromethoxy)phenyl)imidazolidine-1,3-diyl)dibenzonitrile], the IC50 was less than 1 µM.

In the case of `CCC[C@]1(C)[C@@H](c2cccc(OC(F)(F)F)c2)N(c2ccc(C#N)cc2)C(=O)N1c1ccc(C#N)cc1` [Example 52-3, 4,4′-((4R,5R)-4-methyl-2-oxo-4-propyl-5-(3-(trifluoromethoxy)phenyl)imidazolidine-1,3-diyl)dibenzonitrile], the IC50 lay within 1 to 10 µM.

`CCC[C@@]1(C)[C@H](c2cccc(OC(F)(F)F)c2)N(c2ccc(C#N)cc2)C(=O)N1c1ccc(C#N)cc1` [Example 52-5, 4,4′-((4S,5S)-4-methyl-2-oxo-4-propyl-5-(3-(trifluoromethoxy)phenyl)imidazolidine-1,3-diyl)dibenzonitrile] displayed an IC50 of less than 1 µM.

Turning to `CCC[C@@]1(C)[C@@H](c2cccc(OC(F)(F)F)c2)N(c2ccc(C#N)cc2)C(=O)N1c1ccc(C#N)cc1` [Example 52-6, 4,4′-((4S,5R)-4-methyl-2-oxo-4-propyl-5-(3-(trifluoromethoxy)phenyl)imidazolidine-1,3-diyl)dibenzonitrile], the IC50 lay within 10 to 30 µM.

Regarding `Cc1ccc(N2C(=O)N(c3ccc(C#N)cc3)C(C)(C)[C@H]2c2cccc(C#N)c2)cc1` [Example 54-1, (R)-3-(1-(4-cyanophenyl)-5,5-dimethyl-2-oxo-3-(p-tolyl)imidazolidin-4-yl)benzonitrile], the half-inhibitory concentration (IC50) lay within 10 to 30 µM.

Take `Cc1ccc(N2C(=O)N(c3ccc(C#N)cc3)C(C)(C)[C@@H]2c2cccc(C#N)c2)cc1` [Example 54-2, (S)-3-(1-(4-cyanophenyl)-5,5-dimethyl-2-oxo-3-(p-tolyl)imidazolidin-4-yl)benzonitrile]: the IC50 is less than 1 µM.

The compound `Cc1ccc(N2C(=O)N(c3ccc(C#N)cc3)[C@H](c3cccc(C#N)c3)C23COC3)cc1` [Example 55-1, (R)-3-(7-(4-cyanophenyl)-6-oxo-5-(p-tolyl)-2-oxa-5,7-diazaspiro[3.4]octan-8-yl)benzonitrile] returned an IC50 of 10 to 30 µM.

For the compound `Cc1ccc(N2C(=O)N(c3ccc(C#N)cc3)[C@@H](c3cccc(C#N)c3)C23COC3)cc1` [Example 55-2, (S)-3-(7-(4-cyanophenyl)-6-oxo-5-(p-tolyl)-2-oxa-5,7-diazaspiro[3.4]octan-8-yl)benzonitrile], the IC50 was in the range of 1 to 10 µM.

In turn, `Cc1ccc(N2C(=O)N(c3ccc(Cl)cc3)[C@H](c3cccc(OC(F)(F)F)c3)C2(C)C)cc1` [Example 56-1, (R)-1-(4-chlorophenyl)-4,4-dimethyl-3-(p-tolyl)-5-(3-(trifluoromethoxy)phenyl)imidazolidin-2-one] displayed an IC50 of 10 to 30 µM.

`Cc1ccc(N2C(=O)N(c3ccc(Cl)cc3)[C@@H](c3cccc(OC(F)(F)F)c3)C2(C)C)cc1` [Example 56-2, (S)-1-(4-chlorophenyl)-4,4-dimethyl-3-(p-tolyl)-5-(3-(trifluoromethoxy)phenyl)imidazolidin-2-one]: the IC50 was less than 1 µM.

On to `Cc1ccc(N2C(=O)N(c3ccc(C#N)cc3)C3(COC3)[C@H]2c2cccc(C#N)c2)cc1` [Example 57-1, (R)-3-(5-(4-cyanophenyl)-6-oxo-7-(p-tolyl)-2-oxa-5,7-diazaspiro[3.4]octan-8-yl)benzonitrile], for which the IC50 fell in the range of 10 to 30 µM.

In the case of `Cc1ccc(N2C(=O)N(c3ccc(C#N)cc3)C3(COC3)[C@@H]2c2cccc(C#N)c2)cc1` [Example 57-2, (S)-3-(5-(4-cyanophenyl)-6-oxo-7-(p-tolyl)-2-oxa-5,7-diazaspiro[3.4]octan-8-yl)benzonitrile], the IC50 was less than 1 µM.
